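Method: 48-hour compound exposure of cells in 96-well plates, five concentrations, linear interpolation of endpoints. The concentration for 50% growth inhibition is given as GI50. TGI denotes the concentration required for complete inhibition of growth.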
Tests used:
Assay in all cases: NCI tumour cell line growth inhibition, 48 h
EKVX NSCLC = tested on: EKVX NSCLC
OVCAR-8 ovarian = tested on: OVCAR-8 ovarian
HCT-15 colon = tested on: HCT-15 colon
K-562 leukemia = tested on: K-562 leukemia
SK-OV-3 ovarian = tested on: SK-OV-3 ovarian
TK-10 renal = tested on: TK-10 renal
SF-295 CNS = tested on: SF-295 CNS
COLO 205 colon = tested on: COLO 205 colon
UACC-62 melanoma = tested on: UACC-62 melanoma
LOX IMVI melanoma = tested on: LOX IMVI melanoma
SF-268 CNS = tested on: SF-268 CNS
HOP-92 NSCLC = tested on: HOP-92 NSCLC
NCI-H23 lung = tested on: NCI-H23 lung
SK-MEL-2 melanoma = tested on: SK-MEL-2 melanoma
M14 melanoma = tested on: M14 melanoma
NCI/ADR-RES ovarian = tested on: NCI/ADR-RES ovarian
786-0 renal = tested on: 786-0 renal
UACC-257 melanoma = tested on: UACC-257 melanoma
HL-60(TB) leukemia = tested on: HL-60(TB) leukemia
MDA-MB-435 = tested on: MDA-MB-435
CAKI-1 renal = tested on: CAKI-1 renal
SNB-75 CNS = tested on: SNB-75 CNS
OVCAR-5 ovarian = tested on: OVCAR-5 ovarian
HS 578T breast = tested on: HS 578T breast
HCC-2998 colon = tested on: HCC-2998 colon
MCF7 breast = tested on: MCF7 breast
NCI-H460 lung = tested on: NCI-H460 lung
HT29 colon = tested on: HT29 colon
CCRF-CEM leukemia = tested on: CCRF-CEM leukemia
UO-31 renal = tested on: UO-31 renal
IGROV1 ovarian = tested on: IGROV1 ovarian
A549 NSCLC = tested on: A549 NSCLC
NCI-H522 lung = tested on: NCI-H522 lung
SK-MEL-5 melanoma = tested on: SK-MEL-5 melanoma
OVCAR-3 ovarian = tested on: OVCAR-3 ovarian
KM12 colon = tested on: KM12 colon
HOP-62 NSCLC = tested on: HOP-62 NSCLC
MALME-3M melanoma = tested on: MALME-3M melanoma
SNB-19 CNS = tested on: SNB-19 CNS
DU-145 prostate = tested on: DU-145 prostate
SN12C renal = tested on: SN12C renal
MOLT-4 leukemia = tested on: MOLT-4 leukemia
PC-3 prostate = tested on: PC-3 prostate
ACHN renal = tested on: ACHN renal
U251 CNS = tested on: U251 CNS
OVCAR-4 ovarian = tested on: OVCAR-4 ovarian
SK-MEL-28 melanoma = tested on: SK-MEL-28 melanoma
RPMI-8226 leukemia = tested on: RPMI-8226 leukemia
A498 renal = tested on: A498 renal
T-47D breast = tested on: T-47D breast
MDA-MB-231 breast = tested on: MDA-MB-231 breast
SW-620 colon = tested on: SW-620 colon
NCI-H226 lung = tested on: NCI-H226 lung
SF-539 CNS = tested on: SF-539 CNS
HCT-116 colon = tested on: HCT-116 colon
BT-549 breast = tested on: BT-549 breast
RXF 393 renal = tested on: RXF 393 renal
SR leukemia = tested on: SR leukemia

Compound: COc1ccc(-c2cn(-c3ccccc3)c(-c3ccccc3)n2)cc1OC
- GI50 (EKVX NSCLC): 12.1 µM
- TGI (EKVX NSCLC): 29.1 µM
- GI50 (OVCAR-8 ovarian): 3.01 µM
- TGI (OVCAR-8 ovarian): 10.8 µM
- GI50 (HCT-15 colon): 2.62 µM
- TGI (HCT-15 colon): 11.2 µM
- GI50 (K-562 leukemia): 3.21 µM
- TGI (K-562 leukemia): > 100 µM
- GI50 (SK-OV-3 ovarian): 7.44 µM
- TGI (SK-OV-3 ovarian): 20.9 µM
- GI50 (TK-10 renal): 12.2 µM
- TGI (TK-10 renal): 26.1 µM
- GI50 (SF-295 CNS): 3.5 µM
- TGI (SF-295 CNS): 17.1 µM
- GI50 (COLO 205 colon): 2.68 µM
- TGI (COLO 205 colon): 12.3 µM
- GI50 (UACC-62 melanoma): 10.4 µM
- TGI (UACC-62 melanoma): 22.6 µM
- GI50 (LOX IMVI melanoma): 3.08 µM
- TGI (LOX IMVI melanoma): 11.7 µM
- GI50 (SF-268 CNS): 3.35 µM
- TGI (SF-268 CNS): 13.5 µM
- GI50 (HOP-92 NSCLC): 1.82 µM
- TGI (HOP-92 NSCLC): 10.8 µM
- GI50 (NCI-H23 lung): 5.51 µM
- TGI (NCI-H23 lung): 25 µM
- GI50 (SK-MEL-2 melanoma): 7.06 µM
- TGI (SK-MEL-2 melanoma): 22.5 µM
- GI50 (M14 melanoma): 5.69 µM
- TGI (M14 melanoma): 20 µM
- GI50 (NCI/ADR-RES ovarian): 4.01 µM
- TGI (NCI/ADR-RES ovarian): 30.2 µM
- GI50 (786-0 renal): 3.56 µM
- TGI (786-0 renal): 13.5 µM
- GI50 (UACC-257 melanoma): 4.84 µM
- TGI (UACC-257 melanoma): 16.8 µM
- GI50 (HL-60(TB) leukemia): 2.34 µM
- TGI (HL-60(TB) leukemia): 6.7 µM
- GI50 (MDA-MB-435): 2.94 µM
- TGI (MDA-MB-435): 12.5 µM
- GI50 (CAKI-1 renal): 11.2 µM
- TGI (CAKI-1 renal): 27 µM
- GI50 (SNB-75 CNS): 13.6 µM
- TGI (SNB-75 CNS): 28.5 µM
- GI50 (OVCAR-5 ovarian): 7.33 µM
- TGI (OVCAR-5 ovarian): 20.9 µM
- GI50 (HS 578T breast): 5.68 µM
- TGI (HS 578T breast): > 100 µM
- GI50 (HCC-2998 colon): 6.39 µM
- TGI (HCC-2998 colon): 20.7 µM
- GI50 (MCF7 breast): 2.72 µM
- TGI (MCF7 breast): 13.1 µM
- GI50 (NCI-H460 lung): 3.57 µM
- TGI (NCI-H460 lung): 14.9 µM
- GI50 (HT29 colon): 4.5 µM
- TGI (HT29 colon): > 100 µM
- GI50 (CCRF-CEM leukemia): 2.16 µM
- TGI (CCRF-CEM leukemia): 5.98 µM
- GI50 (UO-31 renal): 2.7 µM
- TGI (UO-31 renal): 14.4 µM
- GI50 (IGROV1 ovarian): 2.72 µM
- TGI (IGROV1 ovarian): 9.3 µM
- GI50 (A549 NSCLC): 3.71 µM
- TGI (A549 NSCLC): 16 µM
- GI50 (NCI-H522 lung): 6.63 µM
- TGI (NCI-H522 lung): 19.6 µM
- GI50 (SK-MEL-5 melanoma): 8.03 µM
- TGI (SK-MEL-5 melanoma): 20.7 µM
- GI50 (OVCAR-3 ovarian): 2.2 µM
- TGI (OVCAR-3 ovarian): 5.07 µM
- GI50 (KM12 colon): 2.4 µM
- TGI (KM12 colon): 6.41 µM
- GI50 (HOP-62 NSCLC): 4.44 µM
- TGI (HOP-62 NSCLC): 17.9 µM
- GI50 (MALME-3M melanoma): 9.17 µM
- TGI (MALME-3M melanoma): 22.7 µM
- GI50 (SNB-19 CNS): 7.5 µM
- TGI (SNB-19 CNS): 21.1 µM
- GI50 (DU-145 prostate): 2.9 µM
- TGI (DU-145 prostate): 7.92 µM
- GI50 (SN12C renal): 5.2 µM
- TGI (SN12C renal): 17.8 µM
- GI50 (MOLT-4 leukemia): 2.96 µM
- TGI (MOLT-4 leukemia): 10.9 µM
- GI50 (PC-3 prostate): 5.53 µM
- TGI (PC-3 prostate): 24.7 µM
- GI50 (ACHN renal): 9.55 µM
- TGI (ACHN renal): 21.4 µM
- GI50 (U251 CNS): 2.46 µM
- TGI (U251 CNS): 10.6 µM
- GI50 (OVCAR-4 ovarian): 10.9 µM
- TGI (OVCAR-4 ovarian): 32.9 µM
- GI50 (SK-MEL-28 melanoma): 12 µM
- TGI (SK-MEL-28 melanoma): 26.2 µM
- GI50 (RPMI-8226 leukemia): 1.31 µM
- TGI (RPMI-8226 leukemia): 3.59 µM
- GI50 (A498 renal): 18.7 µM
- TGI (A498 renal): 34.8 µM
- GI50 (T-47D breast): 1.75 µM
- TGI (T-47D breast): 20.2 µM
- GI50 (MDA-MB-231 breast): 10.8 µM
- TGI (MDA-MB-231 breast): 23.5 µM
- GI50 (SW-620 colon): 3.69 µM
- TGI (SW-620 colon): 18.5 µM
- GI50 (NCI-H226 lung): 15 µM
- TGI (NCI-H226 lung): 40.3 µM
- GI50 (SF-539 CNS): 2.14 µM
- TGI (SF-539 CNS): 6.16 µM
- GI50 (HCT-116 colon): 2.84 µM
- TGI (HCT-116 colon): 11.9 µM
- GI50 (BT-549 breast): 2.86 µM
- TGI (BT-549 breast): 18.5 µM

Compound: c1ccc(CSc2nc(N3CCOCC3)c3cn[nH]c3n2)cc1
- TGI (EKVX NSCLC): 48 µM
- TGI (OVCAR-8 ovarian): 89.1 µM
- TGI (HCT-15 colon): > 100 µM
- TGI (K-562 leukemia): > 100 µM
- TGI (SK-OV-3 ovarian): > 100 µM
- TGI (TK-10 renal): 51.6 µM
- TGI (SF-295 CNS): 78 µM
- TGI (COLO 205 colon): 30.4 µM
- TGI (UACC-62 melanoma): 30.3 µM
- TGI (RXF 393 renal): 32.9 µM
- TGI (LOX IMVI melanoma): 44.1 µM
- TGI (SF-268 CNS): 58.8 µM
- TGI (NCI-H23 lung): > 100 µM
- TGI (SK-MEL-2 melanoma): 34 µM
- TGI (M14 melanoma): 49 µM
- TGI (NCI/ADR-RES ovarian): 55.6 µM
- TGI (786-0 renal): > 100 µM
- TGI (UACC-257 melanoma): 29.9 µM
- TGI (HL-60(TB) leukemia): > 100 µM
- TGI (MDA-MB-435): 40 µM
- TGI (CAKI-1 renal): 57.5 µM
- TGI (SNB-75 CNS): > 100 µM
- TGI (OVCAR-5 ovarian): > 100 µM
- TGI (HS 578T breast): 39.3 µM
- TGI (HCC-2998 colon): 69.2 µM
- TGI (MCF7 breast): > 100 µM
- TGI (NCI-H460 lung): 59 µM
- TGI (HT29 colon): > 100 µM
- TGI (CCRF-CEM leukemia): 36 µM
- TGI (UO-31 renal): 38.4 µM
- TGI (IGROV1 ovarian): 31.7 µM
- TGI (A549 NSCLC): > 100 µM
- TGI (NCI-H522 lung): 33.1 µM
- TGI (SK-MEL-5 melanoma): 30.9 µM
- TGI (OVCAR-3 ovarian): > 100 µM
- TGI (KM12 colon): 38.5 µM
- TGI (HOP-62 NSCLC): > 100 µM
- TGI (MALME-3M melanoma): 31.8 µM
- TGI (SNB-19 CNS): 87.4 µM
- TGI (DU-145 prostate): > 100 µM
- TGI (SN12C renal): 37.7 µM
- TGI (MOLT-4 leukemia): > 100 µM
- TGI (PC-3 prostate): 38.2 µM
- TGI (ACHN renal): 90.9 µM
- TGI (U251 CNS): 63.2 µM
- TGI (OVCAR-4 ovarian): > 100 µM
- TGI (SK-MEL-28 melanoma): 43.4 µM
- TGI (RPMI-8226 leukemia): 35.2 µM
- TGI (A498 renal): 26.1 µM
- TGI (T-47D breast): 68.5 µM
- TGI (MDA-MB-231 breast): 39.4 µM
- TGI (SW-620 colon): 64.8 µM
- TGI (NCI-H226 lung): 73.1 µM
- TGI (SF-539 CNS): 56.4 µM
- TGI (HCT-116 colon): > 100 µM
- TGI (SR leukemia): 63.6 µM
- TGI (BT-549 breast): 40.3 µM

— PubChem BioAssay (NCI)
